From US20250054624A1, “METHODS AND SYSTEMS FOR DIGITAL PATHOLOGY ASSESSMENT OF CANCER VIA DEEP LEARNING” (Artera Inc., priority 2023, published 2025)
Entries after “also recorded” stand apart in the source; their conditions may differ. Like-named read-outs stand apart in the source and are kept apart here.

Assays:
[1] = test system: nonmetastatic castration-resistant prostate cancer (nmCRPC); details: cited from earlier work
[2] = test system: nonmetastatic castration-resistant prostate cancer (nmCRPC); assay: SPARTAN phase III randomized placebo-controlled trial; outcomes by treatment group and MMAI risk group; format: in vivo, human; details: for PFS2 hazard ratio (HR) for apalutamide compared to placebo: second progression-free survival; for MFS HR, variable Treatment, Cox regression multivariable analysis / OS HR, variable Treatment, Cox regression multivariable analysis / PFS2 HR, variable Treatment, Cox regression multivariable analysis: all patients
Excerpt: The addition of apalutamide (APA) to androgen deprivation therapy (ADT) improved metastasis-free survival (MFS) and second progression-free survival (PFS2) among patients with nonmetastatic castration-resistant prostate cancer (nmCRPC). A digital histopathology-based multimodal AI (MMAI) algorithm as described herein was trained to evaluate whether MMAI could define risk of progression among nmCRPC patients treated with APA or placebo in the SPARTAN trial.
Patients enrolled in the SPARTAN trial with available H&E-stained biopsy slides from their primary diagnosis were included. H&E slides were digitized. Baseline clinical parameters to generate MMAI scores were Gleason score, age, T stage, and PSA. MMAI scores for distant metastasis (DM) were generated, ranging from 0 to 1. Patients were further categorized into MMAI non-high-risk and high-risk groups using a score cutoff. Kaplan Meier estimates were calculated for PFS2 and MFS; comparisons were performed using log-rank test and Cox proportional-hazards regression for treatment arms and MMAI risk groups. […] was used to evaluate the interaction between treatment arms and risk groups.
SPARTAN (NCT01946204) was an international, multicenter, randomized, double-blinded, placebo-controlled, phase III clinical trial that evaluated the efficacy of apalutamide in improving MFS in men with nmCRPC. […] These patients were considered at high risk for the development of metastases, as indicated by a PSA doubling time of 10 months or less during continuous ADT.
Participants were randomly assigned 2:1 to receive ongoing ADT with either apalutamide (240 mg daily) or a matched placebo. A primary endpoint of the study was MFS, defined as the duration from randomization to the first detection of distant metastasis on conventional imaging (as determined on central review by independent radiologists blinded to patient identifiers and treatment) or death from any cause, whichever occurred first. Secondary endpoints included second progression-free survival (PFS2), defined as the time from randomization to progression on first subsequent therapy, and overall survival (OS), defined as the time from randomization to death.
MMAI scores were computed for each subject within the analysis cohort using whole slide images digitized at 20× resolution from H&E-stained prostate primary slides obtained at the time of diagnosis. These scores, ranging from 0 to 1, represent a continuum of increasing probabilities for clinical events such as DM and PCSM. Subjects' MMAI scores for risk of DM categorized patients into MMAI risk groups (low, intermediate and high) using predefined clinical thresholds established for patients with localized prostate cancer based upon clinician input. For the purpose of this analysis, patients were categorized as either MMAI high risk or MMAI non-high risk (MMAI score with >10% estimated 10-year DM rates defined high-risk), with the latter group combining the low and intermediate risk categories for comparison.
Summary statistics of baseline characteristics for the analysis cohort, treatment subgroups and the overall clinical trial cohort were reported to evaluate comparability. Kaplan-Meier estimates were calculated for MFS, PFS2, and OS for analysis by treatment group and MMAI risk groups. Comparisons were performed using log-rank test and Cox proportional hazards regression models for treatment arms, MMAI risk scores, and MMAI risk group. The reporting unit for continuous MMAI scores in the Cox models is standard deviation (SD), meaning that each 1-unit increase corresponds to 1 SD increase in MMAI score. The interaction between treatment arm and MMAI risk scores was evaluated using a Cox proportional hazards model. Treatment effects within each MMAI risk subgroup were also assessed to measure the relative treatment effect between arms. […]

[3] = overall SPARTAN study, in words
[4] = all patients of analysis cohort
[5] = model with MMAI risk group (high/non-high) and MMAI risk group:Treatment interaction
[6] = model with continuous MMAI risk score and MMAI risk score:Treatment interaction

CNC(=O)c1ccc(N2C(=S)N(c3cnc(C#N)c(C(F)(F)F)c3)C(=O)C23CCC3)cc1F [apalutamide]
Median metastasis-free survival (95% CI), month ([1]; Overall SPARTAN Trial, N = 806): 40.5 month | Median overall survival (95% CI), month ([1]; Overall SPARTAN Trial, N = 806): 73.9 month | metastasis-free survival (MFS), effect of adding apalutamide to ADT [1, 3]: significantly improved | second progression-free survival (PFS2), effect of adding apalutamide to ADT [1, 3]: significantly improved | time to symptomatic progression, effect of adding apalutamide to ADT [1, 3]: significantly improved | overall survival (OS), effect of adding apalutamide to ADT compared to placebo ([1]; overall SPARTAN study, in words, median follow up of 52 months): significantly improved; also recorded: significant extension | Median overall survival (95% CI), month ([2]; MMAI Biomarker Cohort, N = 311): 65.1 month | MFS hazard ratio (HR) for apalutamide compared to placebo ([2]; MMAI high risk group, metastasis-free survival, with ongoing ADT): 0.19 | OS hazard ratio (HR) for apalutamide compared to placebo ([2]; MMAI high risk group, overall survival): 0.6 | PFS2 hazard ratio (HR) for apalutamide compared to placebo ([2]; MMAI high risk group): 0.47 | PFS2 hazard ratio (HR) for apalutamide compared to placebo ([2]; MMAI high risk group, listed as APA): 0.76 | MFS HR, variable Treatment, Cox regression univariate analysis [2, 4]: 0.28 | PFS2 HR, variable Treatment, Cox regression univariate analysis [2, 4]: 0.55 | OS HR, variable Treatment, Cox regression univariate analysis ([2]; all patients of analysis cohort, listed as Treatment): 0.7 | MFS HR, variable Treatment, Cox regression multivariable analysis [2, 5]: 0.61 | OS HR, variable Treatment, Cox regression multivariable analysis [2, 5]: 0.97 | PFS2 HR, variable Treatment, Cox regression multivariable analysis [2, 5]: 0.74 | MFS HR, variable Treatment, Cox regression multivariable analysis [2, 6]: 1.72 | OS HR, variable Treatment, Cox regression multivariable analysis [2, 6]: 1.98 | PFS2 HR, variable Treatment, Cox regression multivariable analysis [2, 6]: 2.28
